Earlier results in patent US9624258B2, “Polymorph of regadenoson” (Biophore India Pharmaceuticals PVT. Ltd., priority 2013, dated 2017).

What was measured:
[1] = background statement
A2A adenosine receptor = A2A adenosine receptor (Homo sapiens, UniProt P29274); details: background statement on compound of U.S. Pat. No. 6,403,567
A2A adenosine receptor, sequence (P29274 whole entry): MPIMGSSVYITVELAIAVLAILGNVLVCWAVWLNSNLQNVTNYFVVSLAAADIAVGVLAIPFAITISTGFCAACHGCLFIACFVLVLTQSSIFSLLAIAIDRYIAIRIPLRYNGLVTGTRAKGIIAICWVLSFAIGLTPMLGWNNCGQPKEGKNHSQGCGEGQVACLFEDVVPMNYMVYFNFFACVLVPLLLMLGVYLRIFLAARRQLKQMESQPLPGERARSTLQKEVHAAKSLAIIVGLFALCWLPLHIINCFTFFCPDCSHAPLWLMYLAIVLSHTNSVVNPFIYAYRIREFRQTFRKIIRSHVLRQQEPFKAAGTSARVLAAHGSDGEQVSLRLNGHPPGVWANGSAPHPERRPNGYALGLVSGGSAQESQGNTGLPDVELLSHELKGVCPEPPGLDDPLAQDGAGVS

Compound: CNC(=O)c1cnn(-c2nc(N)c3ncn([C@@H]4O[C@H](CO)[C@@H](O)[C@H]4O)c3n2)c1 [Regadenoson, (1-{9-[(4S,2R,3R,5R)-3,4-dihydroxy-5-(hydroxymethyl)oxolan-2-yl)-6-aminopurin-2-yl}pyrazole-4-yl)-N-methylcarboxamide]
- biological half-life [1]: 2- to 3 minute
- A2A adenosine receptor agonist selectivity (A2A adenosine receptor): highly selective A2A adenosine receptor agonist
